# Read-outs that look alike come from different tables or passages of the source.
# Tests used:
# [1] = MTT cell viability assay, NHDF; type: cell-based, human; conditions: human, normal human dermal fibroblasts (NHDF); 10 µM, 72 h, mean ± SD; read-out: cell viability percentage in relation to control, NHDF
# Experimental: (§4) The cell lines used in this study (Caco-2, MCF-7, PC-3, and NHDF) were obtained from the American Type Culture Collection (ATCC, Manassas, VA, USA) and cultured in 75 cm^2 culture flasks at 37 °C in a humidified atmosphere with 5% CO2 in a LEEC Culture Safe Precision CO2 Incubator. PC-3 cells were grown in Roswell Park Memorial Institute (RPMI) medium supplemented with 10% of inactivated Fetal Bovine Serum (FBS) and 1% of an antibiotic mixture (Sp; 10,000 U/mL of penicillin G and 100 mg/mL of streptomycin). MCF-7 and Caco-2 cell lines were both cultured using Dulbecco’s Modified Eagle Medium (DMEM). However, the medium for MCF-7 cells was complemented with 10% of inactivated FBS and 1% of antibiotic/antimycotic mixture (Ab; 10,000 U/mL of penicillin G, 100 mg/mL of streptomycin and 25 µg/mL of amphotericin B), and the medium for Caco-2 cells was supplemented with 20% of inactivated FBS and 1% of Sp. Finally, RPMI medium supplemented with 10% FBS, 2 mM of L-glutamine, 10 mM of 4-(2-hydroxyethyl)-1-piperazineethanesulfonic acid (HEPES), 1 mM of sodium pyruvate, and 1% of Ab was used to culture NHDF cells. The culture media were renewed every two to three days until near confluence was achieved. Then, cells were detached using a solution of 0.125 g/L of trypsin and 0.02 g/L of ethylenediaminetetracetic acid (EDTA), counted by the trypan blue method, resuspended, and adequately seeded to continue the culture in 75 cm^2 flasks or for the experiments described below. All manipulations were performed in a Labculture Class II A2 Biological Safety Cabinet.
# [2] = system: normal human dermal fibroblasts (NHDF); assay: MTT cell viability assay, NHDF; type: cell-based; conditions: Homo sapiens; NHDF, 72 h incubation, MTT, absence of light; read-out: IC50 NHDF
# Experimental: as §4
# Caco-2 cells = assay: Apoptosis (sub-G1 events) by PI staining and flow cytometry; type: cell-based, human; conditions: 72 h
# Experimental: Given that apoptosis is a common programmed mechanism regulating cell death, characterized by DNA fragmentation and an increase in sub-G1 events, we employed the method described by Riccardi and Nicolleti to assess potential apoptosis induction using flow cytometry. Cyanine dyes 5 and 10 were tested at concentrations of 1 µM and 10 µM, respectively. As positive controls for apoptosis, 600 mM sorbitol and 10 µM 5-FU were used, with untreated cells serving as the negative control. […] In contrast, dye 10 induced a slight increase in apoptosis, reaching 1.7%. […] Apoptotic bodies were more evident in cells treated with dye 5 compared to dye 10, which is further supported by the slightly higher apoptosis induction in this assay.
# Apoptosis (sub-G1 events) and cell cycle distribution were evaluated by propidium iodide (PI) staining and flow cytometry, as described by Riccardi and Nicolleti. […] Untreated cells were used as the negative control, and sorbitol and 5-FU were used as positive controls. After incubation, the supernatant was collected in a centrifuge tube, cells were washed with PBS, trypsinized and wells were once again washed with PBS. This cell suspension was maintained on ice, centrifugated at 300 g for 5 min, and then the pellet was resuspended in 0.5 mL of PBS. Cells were fixed by adding 4.5 mL of 70% ethanol cooled at −20 °C on ice and were stored at −20 °C for a period ranging from one to a few days. On the day of flow cytometry analysis, PBS was added to the fixed cell tubes, followed by centrifugation and removal of the supernatant. The pellet was resuspended in 0.5 mL of PBS and 0.5 mL of DNA extraction solution (192 mL of 0.2 M sodium phosphate and 8 mL of […], pH 7.8). After incubation for 5 min, the cells were once again centrifuged, the supernatant was removed, and the pellet was resuspended in 0.3 mL of staining solution (20 µg/mL of PI and 0.2 mg/mL of DNase-free RNase in PBS). Using a FACSCalibur flow cytometer (Becton Dickinson, Franklin Lakes, NJ, USA) with a 488 nm laser line, a minimum of 20,000 events were acquired and recorded using the BD CellQuestTM Pro 4.0.2 software, and analyzed with FlowJo 10.5.3 software. To exclude debris and necrotic cells, events with a lower diameter (forward scatter; FCS) and PI fluorescence (FL3) than the hypodiploid apoptotic cells were eliminated (Figures S1 and S2). Two independent experiments were performed. A Student’s t-test was performed to evaluate the statistical significance of the results.
# [3] = system: MCF-7 breast adenocarcinoma cells; assay: MTT cell viability assay, MCF-7; conditions: for IC50 / viability at 10 µM: Homo sapiens, MCF7, 72 h; for viability at 10 µM: read-out: cell viability percentage in relation to control, MCF-7; for SI MCF-7 (selectivity index versus NHDF): MCF-7 versus NHDF, 72 h
# Experimental: (§1) To evaluate the anticancer potential of monomethine cyanine dyes 1–12, a cell proliferation study was conducted using the 3-(4,5-dimethylthiazol-2-yl)-2,5-diphenyltetrazolium bromide (MTT) assay. For this preliminary evaluation, a concentration of 10 µM for each dye was tested, with the well-established chemotherapy agent 5-fluorouracil (5-FU) serving as a positive control. The assay included normal human dermal fibroblasts (NHDF) as non-tumor cells, alongside tumor cell lines from colorectal (Caco-2), prostate (PC-3), and breast (MCF-7) adenocarcinomas.
# (§2) The cell lines used in this study (Caco-2, MCF-7, PC-3, and NHDF) were obtained from the American Type Culture Collection (ATCC, Manassas, VA, USA) and cultured in 75 cm^2 culture flasks at 37 °C in a humidified atmosphere with 5% CO2 in a LEEC Culture Safe Precision CO2 Incubator. PC-3 cells were grown in Roswell Park Memorial Institute (RPMI) medium supplemented with 10% of inactivated Fetal Bovine Serum (FBS) and 1% of an antibiotic mixture (Sp; 10,000 U/mL of penicillin G and […] of streptomycin). MCF-7 and Caco-2 cell lines were both cultured using Dulbecco’s Modified Eagle Medium (DMEM). However, the medium for MCF-7 cells was complemented with 10% of inactivated FBS and 1% of antibiotic/antimycotic mixture (Ab; 10,000 U/mL of penicillin G, […] of streptomycin and 25 µg/mL of amphotericin B), and the medium for Caco-2 cells was supplemented with 20% of inactivated FBS and 1% of Sp. Finally, RPMI medium supplemented with 10% FBS, 2 mM of L-glutamine, 10 mM of 4-(2-hydroxyethyl)-1-piperazineethanesulfonic acid (HEPES), 1 mM of sodium pyruvate, and 1% of Ab was used to culture NHDF cells. The culture media were renewed every two to three days until near confluence was achieved. Then, cells were detached using a solution of 0.125 g/L of trypsin and 0.02 g/L of ethylenediaminetetracetic acid (EDTA), counted by the trypan blue method, resuspended, and adequately seeded to continue the culture in 75 cm^2 flasks or for the experiments described below. All manipulations were performed in a Labculture Class II A2 Biological Safety Cabinet.
# (§3) After trypsinization, cells were seeded in 96-well culture plates (100 µL; 2 × 10^4 cells/mL), and after 48 h (for adherence), they were incubated with the compounds under study in the absence of light for a duration of 72 h. Then, the medium was removed, and fresh incomplete culture medium (without FBS and Ab or Sp) and MTT solution [5 mg/mL in phosphate buffer saline (PBS)] were added to each well, followed by 4 h of incubation. After this, the medium containing MTT was removed and DMSO was added to dissolve formazan crystals. The absorbance of each well at 570 nm was determined using a microplate spectrophotometer Bio-Rad (Hercules, CA, USA) xMark. Untreated cells were considered the negative control, and 5-FU, a clinically used drug, was considered the positive control. For data analysis, the relative cell proliferation relative to the negative control cells was calculated. For each cell viability study, at least two independent assays in quadruplicate were performed. Increasing concentrations of the compounds between 0.001 and 100 μM were used to determine the IC50 values.
# [4] = MTT cell viability assay, Caco-2; conditions: human
# Experimental: as §1, §2, §3
# [5] = system: Caco-2 colorectal adenocarcinoma cells; assay: MTT cell viability assay, Caco-2; conditions: for IC50 / viability at 10 µM: Homo sapiens, Caco-2, 72 h; for IC50: read-out: IC50 Caco-2; for viability at 10 µM: read-out: cell viability percentage in relation to control, Caco-2; for SI Caco-2 (selectivity index, cancer versus non-cancer cell line NHDF): Caco-2 versus NHDF, 72 h
# Experimental: as §1, §2, §3
# [6] = read-out: IC50 MCF-7, MCF-7, 72 h incubation, MTT
# [7] = Caco-2, SI Caco-2 (selectivity index, cancer versus non-cancer cell line NHDF), Caco-2 versus NHDF, 72 h
SMILES,"viability at 72 h, 10 µM [1] [%]",IC50 [2] [µM],"apoptosis (sub-G1 events), % of cells (Caco-2 cells; Caco-2, 10 µM) [%]",IC50 ([3]; read-out: IC50 MCF-7) [µM],viability at 10 µM [3] [%],SI MCF-7 (selectivity index versus NHDF) [3],selectivity ratio at 72 h ([4]; Caco-2),IC50 [5] [µM],viability at 10 µM [5] [%],"IC50 [3, 6] [µM]","selectivity ratio at 72 h [4, 7]","SI Caco-2 (selectivity index, cancer versus non-cancer cell line NHDF) [5]","apoptosis (sub-G1 events), % of cells (Caco-2 cells; Caco-2, 1 µM)"
"O=c1[nH]cc(F)c(=O)[nH]1 [5-FU, 5-fluorouracil, reference compound]",10.5 ± 0.74,4.53,12.8,2.12,25.3 ± 4.94,2.1,4.1,1.11,30.1 ± 1.24,–,–,–,–
"CCN1C(=Cc2sc3cc([N+](=O)[O-])ccc3[n+]2CC)Sc2ccccc21.Cc1ccc(S(=O)(=O)[O-])cc1 [Dye 10, 3-Ethyl-2-((3-ethylbenzo[d]thiazol-2(3H)-ylidene)methyl)-6-nitrobenzo[d]thiazol-3-ium 4-methylbenzenesulfonate]",34.3 ± 1.99,22.4,1.7,–,10.6 ± 6.44,1.7,–,0.14,18.6 ± 0.65,13.3,151,151.4,–
"CN1C(=Cc2oc3ccccc3[n+]2C)C=Cc2ccccc21.Cc1ccc(S(=O)(=O)[O-])cc1 [Dye 5, 3-Methyl-2-((1-methylquinolin-2(1H)-ylidene)methyl)benzo[d]oxazol-3-ium 4-methylbenzenesulfonate]",15.4 ± 1.82,2.79,–,–,6.34 ± 1.06,0.7,–,0.01,5.05 ± 0.19,3.83,278,278.3,approximately 2.3%
